Data as given in PubChem BioAssay AID2103 (Johns Hopkins Ion Channel Center, 2009).
Activity calls are given as the source filed them.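 Rule for the calls: active = hERG current rise at or above blocker-only control mean plus 3 SD, readout 0 or more; inactive = the rest.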

Target: Voltage-gated inwardly rectifying potassium channel KCNH2 (Homo sapiens) (UniProt Q12809)
Assay: relief of dofetilide hERG inhibition – cell-based, Ionworks automated patch clamp, CHO-hERG, secondary (AID 2103)
Settings: dofetilide IC70, at 10 µM, stronger effect = higher value

Voltage-gated inwardly rectifying potassium channel KCNH2 (Homo sapiens), sequence (Q12809 whole entry, looked up): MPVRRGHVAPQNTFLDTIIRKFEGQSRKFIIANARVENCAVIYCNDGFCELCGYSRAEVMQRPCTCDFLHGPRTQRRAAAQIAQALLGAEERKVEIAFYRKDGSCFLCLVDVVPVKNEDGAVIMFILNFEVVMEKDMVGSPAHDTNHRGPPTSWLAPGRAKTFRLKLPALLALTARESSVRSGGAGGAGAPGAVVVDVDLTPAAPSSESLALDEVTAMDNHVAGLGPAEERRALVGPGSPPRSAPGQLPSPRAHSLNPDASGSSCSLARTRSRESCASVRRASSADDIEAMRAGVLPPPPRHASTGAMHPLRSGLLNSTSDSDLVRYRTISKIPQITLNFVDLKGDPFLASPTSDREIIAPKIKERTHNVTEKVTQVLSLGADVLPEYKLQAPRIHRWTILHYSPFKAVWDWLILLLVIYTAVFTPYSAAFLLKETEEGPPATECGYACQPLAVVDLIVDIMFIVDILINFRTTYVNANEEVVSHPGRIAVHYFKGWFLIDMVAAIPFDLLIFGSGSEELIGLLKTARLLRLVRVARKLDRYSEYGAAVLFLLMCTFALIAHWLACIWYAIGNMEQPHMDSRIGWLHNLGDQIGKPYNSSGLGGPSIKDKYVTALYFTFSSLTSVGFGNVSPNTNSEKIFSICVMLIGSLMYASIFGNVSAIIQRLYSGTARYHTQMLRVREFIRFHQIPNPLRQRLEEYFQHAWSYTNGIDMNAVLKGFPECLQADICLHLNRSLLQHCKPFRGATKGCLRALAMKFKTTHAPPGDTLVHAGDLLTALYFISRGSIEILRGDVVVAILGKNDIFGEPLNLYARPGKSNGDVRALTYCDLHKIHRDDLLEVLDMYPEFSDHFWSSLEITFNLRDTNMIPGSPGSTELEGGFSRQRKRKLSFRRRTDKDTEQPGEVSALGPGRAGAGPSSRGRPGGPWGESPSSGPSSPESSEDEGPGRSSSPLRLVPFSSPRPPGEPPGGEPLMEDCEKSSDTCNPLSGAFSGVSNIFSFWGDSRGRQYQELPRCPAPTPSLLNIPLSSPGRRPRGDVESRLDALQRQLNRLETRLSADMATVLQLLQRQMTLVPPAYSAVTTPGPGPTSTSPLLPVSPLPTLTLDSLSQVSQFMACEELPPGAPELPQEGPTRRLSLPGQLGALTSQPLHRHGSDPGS

CCc1ccc(C(C)NC(=O)C2CCCC2)cc1 (centres undefined)
current change vs dofetilide control, less the hit threshold: -41.5% (inactive)

COC(=O)c1c(NS(=O)(=O)c2ccc3ccccc3c2)sc2c1CCCC2
current change vs dofetilide control, less the hit threshold: -46.2% (inactive)

CCOC(=O)N1CCN(C(=O)c2ccc(Cl)c(S(=O)(=O)Nc3ccccc3)c2)CC1
current change vs dofetilide control, less the hit threshold: -58.5% (inactive)

CC(=O)c1c(C)c2c(n1CCN(C)C)CCCC2
current change vs dofetilide control, less the hit threshold: -56.2% (inactive)

N#Cc1c(NC(=O)c2cc(-n3cnnc3)ccc2Cl)sc2c1CCCC2
current change vs dofetilide control, less the hit threshold: -43.1% (inactive)

Fc1ccc2nc(Nc3nc4c(F)cc(F)cc4s3)sc2c1
current change vs dofetilide control, less the hit threshold: -49% (inactive)

CCCN(C(=O)c1ccco1)c1nnc(-c2ccncc2)s1
current change vs dofetilide control, less the hit threshold: -29.1% (inactive)

CC1CN(S(=O)(=O)c2ccc(-c3nc4ccccc4s3)cc2)CC(C)O1 (centres undefined)
current change vs dofetilide control, less the hit threshold: -45% (inactive)

Cc1nc2ccccc2n1-c1ccccc1
current change vs dofetilide control, less the hit threshold: -51.1% (inactive)

CN(C(=O)c1ccc(Cl)c(S(=O)(=O)N2CCOCC2)c1)c1ccccc1C(=O)O
current change vs dofetilide control, less the hit threshold: -64.9% (inactive)

CC(C)Oc1c(Cl)cc(CNC(C)(C)CO)cc1Cl
current change vs dofetilide control, less the hit threshold: -52.1% (inactive)

CN(Cc1ccccc1)C(=O)CCc1ccccc1
current change vs dofetilide control, less the hit threshold: -53.5% (inactive)

CCOC(=O)C1CCN(S(=O)(=O)c2cccc3nonc23)CC1
current change vs dofetilide control, less the hit threshold: -37.7% (inactive)

COc1ccc(C(=O)Nc2ccccc2C(=O)O)cc1Cl
current change vs dofetilide control, less the hit threshold: -54.3% (inactive)

COC(=O)c1ccc(CSc2ncnc3sc(C)c(C)c23)o1
current change vs dofetilide control, less the hit threshold: -48.9% (inactive)

CCOC(=O)Cc1nc2ccccc2o1
current change vs dofetilide control, less the hit threshold: -49.3% (inactive)

Cc1ccc(C(C#N)c2ccc3c(C(F)(F)F)cc(C(F)(F)F)nc3n2)cc1 (centres undefined)
current change vs dofetilide control, less the hit threshold: -59.8% (inactive)

Cc1ccc(C(=O)Nc2nc3ccccc3c(=O)s2)cc1
current change vs dofetilide control, less the hit threshold: -52.6% (inactive)

CCOC(=O)c1c(C)[nH]c(C)c1S(=O)(=O)N1CCCCC1
current change vs dofetilide control, less the hit threshold: -31.9% (inactive)

O=C(O)c1ccc(Cl)cc1Nc1nc2cc(Cl)ccc2o1
current change vs dofetilide control, less the hit threshold: -48.7% (inactive)

NC(=O)C1CCN(C(=O)c2cc3c(s2)CCCC3)CC1
current change vs dofetilide control, less the hit threshold: -52.8% (inactive)

Cc1ccc(Cn2nnc3c(=O)n(CC(=O)N4CCCc5ccccc54)cnc32)cc1
current change vs dofetilide control, less the hit threshold: -41.2% (inactive)

Cc1nonc1CN(C)C(=O)c1ccc(OC2CCN(Cc3ccccn3)CC2)cc1
current change vs dofetilide control, less the hit threshold: -69.9% (inactive)

O=C(c1csc(Nc2ccccc2Cl)n1)N1CCCC1
current change vs dofetilide control, less the hit threshold: -45.9% (inactive)

O=C1C2CC=CCC2C(=O)N1c1ccc(Cc2ccncc2)cc1 (centres undefined)
current change vs dofetilide control, less the hit threshold: -31.9% (inactive)

Clc1cccc(OCCCN2CCCC2)c1Cl
current change vs dofetilide control, less the hit threshold: -77.4% (inactive)

CCc1ccc2nc(NC(=O)c3cc(C)on3)sc2c1
current change vs dofetilide control, less the hit threshold: -43.6% (inactive)

Cc1ccc(C)c2sc(NC(=O)c3nc4ccccc4s3)nc12
current change vs dofetilide control, less the hit threshold: -46.9% (inactive)

CCOC(=O)N1CCN(C(=O)c2ccc(CN(c3ccc(C)c(C)c3)S(C)(=O)=O)cc2)CC1
current change vs dofetilide control, less the hit threshold: -30.1% (inactive)
